Laboratory results taken from PMC8588536, “Iridal-Type Triterpenoids Displaying Human Neutrophil Elastase Inhibition and Anti-Inflammatory Effects from Belamcanda chinensis” (Molecules, 2021).

Test system: NF-κB p65 in LPS-stimulated RAW264.7 cells
Experiment: NF-κB p65 nuclear translocation, Western blot of nuclear and cytoplasmic fractions
Format: cell-based, mouse
Details: 1 and 3 µg/mL, n = 3, p < 0.05
Description: RAW264.7 cells were homogenized in a hypotonic lysis buffer and centrifuged at 142× g for 5 min at 4 °C. The resulting pellets and supernatants were used for the isolation of nuclear and cytosoplasmic fraction, respectively. The pellets were incubated on ice for 5 min with a nuclear isolation buffer and were spun at 142× g using Eppendorf centrifuge 5424 R at 4 °C for 5 min. The resulting pellets were incubated on ice for 30 min with 2% Triton nuclear isolation buffer and were spun at 12,448× g at 4 °C for 15 min. For the cytosolic fraction, the resulting supernatants in the hypotonic lysis buffer were transferred to a new 1.5 mL tube and spun at 15,401× g for 15 min at 4 °C. The resulting supernatants were centrifuged at 100,000× g at 4 °C for 60 min in an ultracentrifuge (TLA 100.3; Optima MAX-XP, Beckman Coulter, Inc., Brea, CA, USA). The proteins of nuclear and cytosolic fractions were separated on 8% SDS-PAGE gel and blotted onto polyvinylidene difluoride membranes. Equal amounts of 35 µg were analyzed by Western blotting. Briefly, the membranes were blocked with 5% fat-free dry milk and then incubated with the anti-NF-κB p65 polyclonal antibody (1:1000 dilution; Cell Signaling Technology), and anti-β-actin monoclonal antibodies (1:5000 dilution). […]

Question: With `CC(C)=CCCC(C)=CCC(O)C(C)=CCCC1(C)C(CCCO)C(=C(C)C=O)CCC1(C)O` (stereo not shown) [Compound 2, iridobelamal A] as the compound, how does the “nuclear translocation of p65 protein (Western blot)” value read?
Answer: inhibited
